According to patent US20210379085A1, “HALOGENATED SALICYLANILIDES FOR TREATING THE SYMPTOMS OF DERMATITIS” (Union Therapeutics A/S, priority 2018, published 2021):

How the values were obtained:
[1] = system: skin barrier and inflammation biomarkers in lesional skin biopsies; experiment: Microarray (Affymetrix U133A Plus 2) biomarker gene expression in lesional skin biopsies (Example 3); format: in vivo, human
Method: (§1) Patients received topical applications of a niclosamide 2% composition and vehicle once daily for 3 weeks, followed by a 1-week follow up period. Topical niclosamide 2% and vehicle was applied on two separate target lesions of atopic dermatitis (lesions of at least 3×3-cm that are at least 2 cm apart, excluding the face, scalp, genitals, hands, and feet). The application areas (5×5-cm) were randomized (1:1) to once daily application of niclosamide 2% or vehicle at 5 mg/cm^2 without occlusion 6 days per week. Patients came to the study site for all study product application for a total of 3 weeks.
(§2) Skin barrier and inflammation biomarker levels were determined from lesional skin biopsies from application areas.
(§3) The skin biopsy samples were analysed by immunohistochemistry (IHC), and by gene expression studies by RT-PCR using TaqMan Low Density Array (TLDA), and by microarray using Affymetrix U133A Plus 2. The immunohistochemistry (IHC) was used to analyse cell biomarkers. The methodologies as disclosed by Guttman-Yassky et al, “Major differences in inflammatory dendritic cells and their products distinguish atopic dermatitis from psoriasis”, The Journal of Allergy and Clinical Immunology, vol. 119, issue 5, pages 1210-1217, 2007, were followed except for that U133A Plus 2-set Gene Chip probe arrays was used instead of U95A-set Gene Chip probe arrays.
Experimental design: The hybridization strategy was in concordance with experimental design principles, by for example keeping all samples from the same patient in the same date, and always include samples from every treatment arm/group.
Quality Control and Pre-processing: Quality control of microarray chips were carried out using standard QC metrics and R package microarray Quality Control. Expression measures were obtained using GCRMA algorithm (Wu & Irizarry, 2004). Several visual and modelling techniques were used to elucidate if batch effect existed. Principal Component analysis plots were used to detect if any evident batch effect existed. If such batch effects were found, they were adjusted using Combat, an empirical Bayes method for adjusting data for batch effects that is robust to outliers in small sample sizes (Johnson, Li, & Rabinovic, 2007). The implementation of Combat by package sva was used.
Probe-sets with at least 5% samples with expression larger than 3 (in log 2-scale) were kept for further analysis. Expression values were modelled using mixed-effect models with fixed factors Visit and Treatment Area and a random effect for each patient. Fold changes for the comparisons of interest were estimated and hypothesis testing was conducted on such comparisons using contrasts under the general framework for linear models in limma package. The inter-replicate correlation was computed by Duplicate Correlation function and the linear model was estimated by ImFit. P-values from the moderated (paired) t-test were adjusted for multiple hypotheses using the Benjamini-Hochberg procedure, which controls for FDR.

[2] = system: immune cell infiltrates (CD3, langerin, CD11c, FceR1) in lesional skin; experiment: Immunohistochemistry (IHC) of cell biomarkers in lesional skin biopsies (Example 3); format: in vivo, human; settings: topical 2% niclosamide
Method: as §1, §2, §3

[3] = Day 22, topical administration of 2% niclosamide, p<0.05
[4] = fold change, Day 22, vehicle-treated vs niclosamide-treated lesion, topical niclosamide 2% once daily 3 weeks, AD lesional skin
[5] = fold change, Day 22 vs baseline, topical niclosamide 2% once daily 3 weeks, AD lesional skin
[6] = Day 22 compared to baseline (pre-dosing at Day 1)

In the case of `O=C(Nc1ccc([N+](=O)[O-])cc1Cl)c1cc(Cl)ccc1O` [Niclosamide, niclosamide], the “CXCL1 downregulation, 2% niclosamide compared to vehicle (microarray values)” value [1, 3] is reported as −2.10, the “PI3 downregulation, 2% niclosamide compared to vehicle (microarray values)” value [1, 3] is reported as −1.87 and the “S100A9 downregulation, 2% niclosamide compared to vehicle (microarray values)” value [1, 3] is reported as −1.88. The “S100A12 downregulation, 2% niclosamide compared to vehicle (microarray values)” value [1, 3] was −2.30, the “ACOT2 expression, Vehicle vs. Niclosamide (Microarray)” value [1, 4] was −1.35 and the “ACOX2 expression, Vehicle vs. Niclosamide (Microarray)” value [1, 4] was −1.40. For the same compound, the “CCL2 expression, Vehicle vs. Niclosamide (Microarray)” value [1, 4] was 1.56, the “CCL13 expression, Vehicle vs. Niclosamide (Microarray)” value [1, 4] was 1.32 and the “CCL18 expression, Vehicle vs. Niclosamide (Microarray)” value [1, 4] was 1.66. The “CCL20 expression, Vehicle vs. Niclosamide (Microarray)” value [1, 4] was 2.00, the “CCL23 expression, Vehicle vs. Niclosamide (Microarray)” value [1, 4] was 1.63 and the “CCL26 expression, Vehicle vs. Niclosamide (Microarray)” value [1, 4] was 1.69. The “CCR1 expression, Vehicle vs. Niclosamide (Microarray)” value [1, 4] was 1.55, the “CCR6 expression, Vehicle vs. Niclosamide (Microarray)” value [1, 4] was 1.31 and the “CXCL1 expression, Vehicle vs. Niclosamide (Microarray)” value [1, 4] was 2.10. The “DGAT2 expression, Vehicle vs. Niclosamide (Microarray)” value [1, 4] was −1.19, the “ELOVL3 expression, Vehicle vs. Niclosamide (Microarray)” value [1, 4] was −1.66 and the “FA2H expression, Vehicle vs. Niclosamide (Microarray)” value [1, 4] was −1.57. The “FAR2 expression, Vehicle vs. Niclosamide (Microarray)” value [1, 4] was −1.47, the “FAXDC2 expression, Vehicle vs. Niclosamide (Microarray)” value [1, 4] was −1.29 and the “IFNGR2 expression, Vehicle vs. Niclosamide (Microarray)” value [1, 4] was 1.10. For the same compound, the “IL1F10 expression, Vehicle vs. Niclosamide (Microarray)” value [1, 4] was −1.79, the “IL4R expression, Vehicle vs. Niclosamide (Microarray)” value [1, 4] was 1.29 and the “IL26 expression, Vehicle vs. Niclosamide (Microarray)” value [1, 4] was 1.78. The “KRT79 expression, Vehicle vs. Niclosamide (Microarray)” value [1, 4] was −2.00, the “LCN2 expression, Vehicle vs. Niclosamide (Microarray)” value [1, 4] was 1.69 and the “PI 3 expression, Vehicle vs. Niclosamide (Microarray)” value [1, 4] was 1.87. The “PNPLA3 expression, Vehicle vs. Niclosamide (Microarray)” value [1, 4] was −1.79, the “PPARG expression, Vehicle vs. Niclosamide (Microarray)” value [1, 4] was −1.55 and the “S100A9 expression, Vehicle vs. Niclosamide (Microarray)” value [1, 4] was 1.88. For the same compound, the “S100A12 expression, Vehicle vs. Niclosamide (Microarray)” value [1, 4] was 2.30, the “SPTLC3 expression, Vehicle vs. Niclosamide (Microarray)” value [1, 4] was −1.30 and the “STAT1 expression, Vehicle vs. Niclosamide (Microarray)” value [1, 4] was 1.13. For the same compound, the “STAT3 expression, Vehicle vs. Niclosamide (Microarray)” value [1, 4] was 1.16, the “TNFSF4 expression, Vehicle vs. Niclosamide (Microarray)” value [1, 4] was 1.35 and the “ACER1 expression, Niclosamide vs Predose (Microarray)” value [1, 5] was 1.94. The “ACOX2 expression, Niclosamide vs Predose (Microarray)” value [1, 5] was 1.40, the “ACSL1 expression, Niclosamide vs Predose (Microarray)” value [1, 5] was 1.21 and the “ANXA6 expression, Niclosamide vs Predose (Microarray)” value [1, 5] was −1.24. For the same compound, the “ANXA9 expression, Niclosamide vs Predose (Microarray)” value [1, 5] was 1.56, the “CCL2 expression, Niclosamide vs Predose (Microarray)” value [1, 5] was −1.77 and the “CCL13 expression, Niclosamide vs Predose (Microarray)” value [1, 5] was −1.40. For the same compound, the “CCL18 expression, Niclosamide vs Predose (Microarray)” value [1, 5] was −1.70, the “CCL19 expression, Niclosamide vs Predose (Microarray)” value [1, 5] was −1.56 and the “CCL22 expression, Niclosamide vs Predose (Microarray)” value [1, 5] was −1.83. The “CCR1 expression, Niclosamide vs Predose (Microarray)” value [1, 5] was −1.90, the “CCR2 expression, Niclosamide vs Predose (Microarray)” value [1, 5] was −1.37 and the “CCR5 expression, Niclosamide vs Predose (Microarray)” value [1, 5] was −1.40. For the same compound, the “CCR6 expression, Niclosamide vs Predose (Microarray)” value [1, 5] was −1.33, the “CCR7 expression, Niclosamide vs Predose (Microarray)” value [1, 5] was −1.51 and the “CD2 expression, Niclosamide vs Predose (Microarray)” value [1, 5] was −1.56. For the same compound, the “CD3D expression, Niclosamide vs Predose (Microarray)” value [1, 5] was −1.63, the “CD3G expression, Niclosamide vs Predose (Microarray)” value [1, 5] was −1.62 and the “CD28 expression, Niclosamide vs Predose (Microarray)” value [1, 5] was −1.72. For the same compound, the “CD86 expression, Niclosamide vs Predose (Microarray)” value [1, 5] was −1.60, the “CDSN expression, Niclosamide vs Predose (Microarray)” value [1, 5] was 1.14 and the “CERS3 expression, Niclosamide vs Predose (Microarray)” value [1, 5] was 1.13. For the same compound, the “CLDN1 expression, Niclosamide vs Predose (Microarray)” value [1, 5] was 1.17, the “CLDN23 expression, Niclosamide vs Predose (Microarray)” value [1, 5] was 1.42 and the “CLN8 expression, Niclosamide vs Predose (Microarray)” value [1, 5] was 1.15. For the same compound, the “CXCL1 expression, Niclosamide vs Predose (Microarray)” value [1, 5] was −2.83, the “CXCL2 expression, Niclosamide vs Predose (Microarray)” value [1, 5] was −1.81 and the “DGAT2 expression, Niclosamide vs Predose (Microarray)” value [1, 5] was 1.33. For the same compound, the “DHCR7 expression, Niclosamide vs Predose (Microarray)” value [1, 5] was 1.12, the “ELOVL3 expression, Niclosamide vs Predose (Microarray)” value [1, 5] was 1.81 and the “EREG expression, Niclosamide vs Predose (Microarray)” value [1, 5] was 1.19. The “FA2H expression, Niclosamide vs Predose (Microarray)” value [1, 5] was 1.50, the “FAR2 expression, Niclosamide vs Predose (Microarray)” value [1, 5] was 1.48 and the “FAXDC2 expression, Niclosamide vs Predose (Microarray)” value [1, 5] was 1.46. The “FLG expression, Niclosamide vs Predose (Microarray)” value [1, 5] was 1.17, the “IFNGR2 expression, Niclosamide vs Predose (Microarray)” value [1, 5] was −1.13 and the “IL1F10 expression, Niclosamide vs Predose (Microarray)” value [1, 5] was 1.98. The “IL2RA expression, Niclosamide vs Predose (Microarray)” value [1, 5] was −1.27, the “IL4R expression, Niclosamide vs Predose (Microarray)” value [1, 5] was −1.80 and the “IL6R expression, Niclosamide vs Predose (Microarray)” value [1, 5] was −1.25. The “IL7R expression, Niclosamide vs Predose (Microarray)” value [1, 5] was −1.58, the “IL12RB2 expression, Niclosamide vs Predose (Microarray)” value [1, 5] was −1.21 and the “IL24 expression, Niclosamide vs Predose (Microarray)” value [1, 5] was −2.19. For the same compound, the “IL37 expression, Niclosamide vs Predose (Microarray)” value [1, 5] was 1.69, the “IRF1 expression, Niclosamide vs Predose (Microarray)” value [1, 5] was −1.37 and the “KRT23 expression, Niclosamide vs Predose (Microarray)” value [1, 5] was 1.26. For the same compound, the “KRT77 expression, Niclosamide vs Predose (Microarray)” value [1, 5] was 1.43, the “KRT79 expression, Niclosamide vs Predose (Microarray)” value [1, 5] was 1.91 and the “LCN2 expression, Niclosamide vs Predose (Microarray)” value [1, 5] was −1.62. The “MMP12 expression, Niclosamide vs Predose (Microarray)” value [1, 5] was −2.81, the “PI 3 expression, Niclosamide vs Predose (Microarray)” value [1, 5] was −3.13 and the “PNPLA3 expression, Niclosamide vs Predose (Microarray)” value [1, 5] was 1.91. The “PPL expression, Niclosamide vs Predose (Microarray)” value [1, 5] was 1.06, the “S100A7 expression, Niclosamide vs Predose (Microarray)” value [1, 5] was −1.17 and the “S100A8 expression, Niclosamide vs Predose (Microarray)” value [1, 5] was −1.45. For the same compound, the “S100A9 expression, Niclosamide vs Predose (Microarray)” value [1, 5] was −2.81, the “S100A12 expression, Niclosamide vs Predose (Microarray)” value [1, 5] was −3.62 and the “S100P expression, Niclosamide vs Predose (Microarray)” value [1, 5] was −1.35. For the same compound, the “SCEL expression, Niclosamide vs Predose (Microarray)” value [1, 5] was 1.43, the “SERPINB1 expression, Niclosamide vs Predose (Microarray)” value [1, 5] was −1.29 and the “SERPINB4 expression, Niclosamide vs Predose (Microarray)” value [1, 5] was −1.54. For the same compound, the “SPTLC3 expression, Niclosamide vs Predose (Microarray)” value [1, 5] was 1.44, the “STAT3 expression, Niclosamide vs Predose (Microarray)” value [1, 5] was −1.13 and the “TJP3 expression, Niclosamide vs Predose (Microarray)” value [1, 5] was 1.51. The “TNFSF4 expression, Niclosamide vs Predose (Microarray)” value [1, 5] was −1.64, the “inflammatory cells (dendritic cells: CD11c, FceR1 in epidermis, and Langerhans cells: langerin/CD207)” value [2, 6] was “Significant reductions” and the “total amount of T cells (CD3) in dermis and epidermis” value [2, 6] was “No significant change”. The “CD11c Dermis expression level” value ([2]; Day 22 compared to baseline, clinically correlated to TSS) was “significantly changed”.
